Converted amounts (≈) assume the structure as drawn. “Also recorded” adds a separate entry of the source. Read-outs that look alike come from different tables or passages of the source.
Legend:
[1] = Aqueous solubility at 37° C. (HPLC of filtered suspension); type: physicochemical; conditions: 37° C.
Protocol: The solubility of novel crystalline forms of QTX125 was assessed in the following aqueous solutions: (i) phosphate buffer, pH 3.5, 0.9% w/v sodium chloride; (ii) phosphate buffer, pH 6.5, 0.9% w/v sodium chloride; (iii) acetate buffer, pH 4.5, 0.9% w/v sodium chloride; (iv) citro-phosphate buffer, pH 4.5, 0.9% w/v sodium chloride; (v) sodium chloride, 0.9% w/v and (vi) deionised water. All assays were completed at 37° C.
In brief, 30 mg QTX125 was dispensed into vessels followed by 5 mL of the appropriate aqueous buffer. Mixtures were suspended by agitation and heated to 37° C. At various fixed intervals, an 0.4 mL aliquot of the suspension was removed, filtered and diluted for examination by HPLC. A single HPLC reference sample was used.

[2] = Photostability at solid state (chemical purity by HPLC after illumination); type: physicochemical; conditions: for HPLC peak area, QTX125 RRT 1.00 / HPLC peak area, RRT 1.04 / degradation (in words) / HPLC peak area, RRT 1.12: solid-state, sealed under nitrogen in amber glass bottles; for degradation (in words): up to 171 hours
Protocol: The method for determining purity by HPLC—used throughout these examples—used the following parameters:
The photostability of novel crystalline forms of QTX125 was assessed at solid state and in solution. Where ‘forced illumination’ conditions were used, samples were illuminated at 12 Klux/hour and 2.8 UV W/m^2/hour. Samples were stored at a temperature of 30° C. Following incubation, the chemical purity of QTX125 was measured by HPLC.
The following index is provided to aid navigation of the data presented in Tables 3.1.1 to 3.3.6: • 3.1.x—Assessment of the photostability of QTX125 Form 2. • 3.2.x—Assessment of the photostability of amorphous QTX125. • 3.3.x—Assessment of the photostability of the QTX125 1:2 L-Lysine adduct. • 3.x.1—Samples (at solid state) stored in unsealed clear glass bottles, subject to forced illumination. • 3.x.2—Samples (at solid state) sealed under nitrogen in clear glass bottles, subject to forced illumination. • 3.x.3—Samples (at solid state) sealed under nitrogen in amber glass bottles, illuminated under ambient laboratory conditions • 3.x.4—Samples (at solid state) sealed under nitrogen in amber glass bottles, subject to forced illumination. • 3.x.5—Samples (in solution) sealed under nitrogen in amber glass bottles, illuminated under ambient laboratory conditions. • 3.x.6—Samples (in solution) sealed under nitrogen in amber glass bottles, subject to forced illumination.

[3] = 0.9% w/v sodium chloride solution, saline or isotonic, thermodynamic from solid, buffer (v) sodium chloride, 0.9% w/v, read-out: concentration of QTX125 (solubility)
[4] = acetate buffer with 0.9% w/v sodium chloride, aqueous buffer, thermodynamic from solid, buffer (iii) acetate buffer, pH 4.5, 0.9% w/v sodium chloride, read-out: concentration of QTX125 (solubility)
[5] = citro-phosphate buffer with 0.9% w/v sodium chloride, aqueous buffer, thermodynamic from solid, buffer (iv) citro-phosphate buffer, pH 4.5, 0.9% w/v sodium chloride, read-out: concentration of QTX125 (solubility)
[6] = phosphate buffer with 0.9% w/v sodium chloride, aqueous buffer, thermodynamic from solid, buffer (i) phosphate buffer, pH 3.5, 0.9% w/v sodium chloride, read-out: concentration of QTX125 (solubility)
[7] = phosphate buffer with 0.9% w/v sodium chloride, aqueous buffer, thermodynamic from solid, buffer (ii) phosphate buffer, pH 6.5, 0.9% w/v sodium chloride, read-out: concentration of QTX125 (solubility)
[8] = thermodynamic from solid, buffer (vi) deionised water, read-out: concentration of QTX125 (solubility)
[9] = ambient laboratory conditions, 0 hours
[10] = ambient laboratory conditions, 3 hours
[11] = ambient laboratory conditions, 26 hours
[12] = ambient laboratory conditions, 74 hours
[13] = ambient laboratory conditions, 171 hours
[14] = ambient laboratory conditions, 171 hours, listed as Form 2
[15] = forced illumination, 171 hours, listed as Form 2

In the case of `O=C(NO)c1ccc(CNC(=O)c2[nH]c(-c3ccc(O)cc3)cc2-c2ccoc2)cc1` [QTX125 Form 2, 3-(3-Furyl)-N-{4-[(hydroxyamino)carbonyl]benzyl}-5-(4-hydroxyphenyl)-1H-pyrrole-2-carboxamide], the solubility at 1 h [1, 3] is reported as 0.68 µg/mL (≈ 1.63 µM), the solubility at 4 h [1, 3] is reported as 0.26 µg/mL (≈ 0.623 µM) and the solubility at 7 h ([1]; 0.9% w/v sodium chloride solution, saline or isotonic, thermodynamic from solid, buffer (v) sodium chloride, 0.9% w/v, 7 hours, read-out: concentration of QTX125 (solubility)) is reported as 0.22 µg/mL (≈ 0.527 µM). For the same molecule, the solubility at 24 h [1, 3] was 0.81 µg/mL (≈ 1.94 µM), the solubility at 1 h [1, 4] was 0.25 µg/mL (≈ 0.599 µM) and the solubility at 4 h [1, 4] was 0.29 µg/mL (≈ 0.695 µM). It also gave a solubility at 7 h ([1]; acetate buffer with 0.9% w/v sodium chloride, aqueous buffer, thermodynamic from solid, buffer (iii) acetate buffer, pH 4.5, 0.9% w/v sodium chloride, 7 hours, read-out: concentration of QTX125 (solubility)) of 0.19 µg/mL (≈ 0.455 µM), a solubility at 24 h [1, 4] of 0.5 µg/mL (≈ 1.2 µM) and a solubility ([1]; aqueous buffers (i) to (v), aqueous buffer, thermodynamic from solid, buffers (i) to (v), 1 to 24 hours, read-out: concentration values range (solubility)) of 0.15 to 1.76 µg/mL (≈ 0.359 to 4.22 µM). The “concentration of QTX125 (solubility)” value ([1]; buffer (vi) deionised water, 7 hours) was 27.82 µg/mL, the “solubility (in words)” value ([1]; buffers (i) to (v)) was “very low” and the solubility at 1 h [1, 5] was 0.32 µg/mL (≈ 0.767 µM). For the same molecule, the solubility at 4 h [1, 5] was 0.17 µg/mL (≈ 0.407 µM), the solubility at 7 h ([1]; citro-phosphate buffer with 0.9% w/v sodium chloride, aqueous buffer, thermodynamic from solid, buffer (iv) citro-phosphate buffer, pH 4.5, 0.9% w/v sodium chloride, 7 hours, read-out: concentration of QTX125 (solubility)) was 0.17 µg/mL (≈ 0.407 µM) and the solubility at 24 h [1, 5] was 0.4 µg/mL (≈ 0.958 µM). The “PXRD analysis of the solid recovered at 24 hours” value ([1]; deionised water (vi)) was “confirmed the entity as Form 2”, the solubility at 1 h [1, 6] was 0.77 µg/mL (≈ 1.84 µM) and the solubility at 4 h [1, 6] was 0.15 µg/mL (≈ 0.359 µM). It also gave a solubility at 7 h ([1]; phosphate buffer with 0.9% w/v sodium chloride, aqueous buffer, thermodynamic from solid, buffer (i) phosphate buffer, pH 3.5, 0.9% w/v sodium chloride, 7 hours, read-out: concentration of QTX125 (solubility)) of 0.5 µg/mL (≈ 1.2 µM), a solubility at 24 h [1, 6] of 1.76 µg/mL (≈ 4.22 µM) and a solubility at 1 h [1, 7] of 0.33 µg/mL (≈ 0.791 µM). For the same molecule, the solubility at 4 h [1, 7] was 0.15 µg/mL (≈ 0.359 µM), the solubility at 7 h ([1]; phosphate buffer with 0.9% w/v sodium chloride, aqueous buffer, thermodynamic from solid, buffer (ii) phosphate buffer, pH 6.5, 0.9% w/v sodium chloride, 7 hours, read-out: concentration of QTX125 (solubility)) was 0.34 µg/mL (≈ 0.815 µM) and the solubility at 24 h [1, 7] was 0.63 µg/mL (≈ 1.51 µM). It also gave a solubility at 1 h [1, 8] of 17.8 µg/mL (≈ 42.6 µM), a solubility at 4 h [1, 8] of 22.4 µg/mL (≈ 53.6 µM) and a solubility at 24 h [1, 8] of 16.6 µg/mL (≈ 39.7 µM). For the same molecule, the solubility at 7 h ([1]; thermodynamic from solid, deionised water (buffer vi), following 7 hours of incubation, read-out: peak solubility) was 27.8 µg/mL (≈ 66.6 µM), the “photostability as compared to amorphous QTX125” value ([2]; at solid state) was “enhanced photostability; also recorded: improved photostability” and the “HPLC peak area, QTX125 RRT 1.00” value [2, 9] was 98.21%. The “HPLC peak area, RRT 1.04” value [2, 9] was 0.98%, the “HPLC peak area, QTX125 RRT 1.00” value [2, 10] was 97.35% and the “HPLC peak area, RRT 1.04” value [2, 10] was 1.06%. The “HPLC peak area, QTX125 RRT 1.00” value [2, 11] was 98.11%, the “HPLC peak area, RRT 1.04” value [2, 11] was 1.07% and the “HPLC peak area, QTX125 RRT 1.00” value [2, 12] was 98.83%. The “HPLC peak area, RRT 1.04” value [2, 12] was 0.55%, the “HPLC peak area, QTX125 RRT 1.00” value [2, 13] was 98.12% and the “HPLC peak area, RRT 1.04” value [2, 13] was 1.21%. The “HPLC peak area, QTX125 RRT 1.00” value [2, 14] was 98.12%, the “HPLC peak area, RRT 1.04” value [2, 14] was 1.21% and the “degradation (in words)” value ([2]; ambient laboratory conditions) was “little evidence of degradation”. For the same molecule, the “HPLC peak area, QTX125 RRT 1.00” value ([2]; forced illumination, 0 hours) was 98.21%, the “HPLC peak area, RRT 1.04” value ([2]; forced illumination, 0 hours) was 0.98% and the “HPLC peak area, QTX125 RRT 1.00” value ([2]; forced illumination, 3 hours) was 98.23%. For the same molecule, the “HPLC peak area, RRT 1.04” value ([2]; forced illumination, 3 hours) was 0.99%, the “HPLC peak area, QTX125 RRT 1.00” value ([2]; forced illumination, 26 hours) was 97.82% and the “HPLC peak area, RRT 1.04” value ([2]; forced illumination, 26 hours) was 1.22%. The “HPLC peak area, QTX125 RRT 1.00” value ([2]; forced illumination, 74 hours) was 97.70%, the “HPLC peak area, RRT 1.04” value ([2]; forced illumination, 74 hours) was 1.06% and the “HPLC peak area, QTX125 RRT 1.00” value ([2]; forced illumination, 171 hours) was 95.40%. For the same molecule, the “HPLC peak area, RRT 1.04” value ([2]; forced illumination, 171 hours) was 2.55%, the “HPLC peak area, RRT 1.12” value ([2]; forced illumination, 171 hours) was 0.28% and the “HPLC peak area, QTX125 RRT 1.00” value [2, 15] was 95.40%. The “HPLC peak area, RRT 1.04” value [2, 15] was 2.55%, the “HPLC peak area, RRT 1.12” value [2, 15] was 0.28% and the “degradation (in words)” value ([2]; forced illumination) was “degrade slightly”.

Reference: patent US20260070895A1, “CRYSTALLINE FORMS” (QUIMATRYX, S.L., priority 2022, published 2026)
